Columns and labels:
HepG2 = assay: Cytotoxicity against human HepG2 cells assessed as growth inhibition after 72 hrs by MTT assay; format: functional, cell-based; settings: HepG2, 72 h
BXPC-3 = assay: Cytotoxicity against human BxPC3 cells assessed as growth inhibition after 72 hrs by MTT assay; format: functional, cell-based; settings: BXPC-3, 72 h
HT-29 = assay: Cytotoxicity against human HT-29 cells assessed as growth inhibition after 72 hrs by MTT assay; format: functional, cell-based; settings: HT-29, 72 h
MX1 [1] = assay: Cytotoxicity against taxol-resistant human MX1 cells assessed as growth inhibition after 72 hrs by MTT assay; format: functional, cell-based; settings: MX1, 72 h
KB [2] = assay: Cytotoxicity against human KB cells assessed as growth inhibition after 72 hrs by MTT assay; format: functional, cell-based
KB [3] = assay: Cytotoxicity against vincristine-resistant human KB cells assessed as growth inhibition after 72 hrs by MTT assay; format: functional, cell-based
MCF7 = assay: Cytotoxicity against human MCF7 cells assessed as growth inhibition after 72 hrs by MTT assay; format: functional, cell-based; settings: MCF7, 72 h
A549 = assay: Cytotoxicity against human A549 cells assessed as growth inhibition after 72 hrs by MTT assay; format: functional, cell-based; settings: A549, 72 h
MX1 [4] = assay: Cytotoxicity against human MX1 cells assessed as growth inhibition after 72 hrs by MTT assay; format: functional, cell-based; settings: MX1, 72 h
Mus musculus [5] = assay: Toxicity in KM mouse allografted with mouse H22 cells assessed as body weight at 0.25 mg/kg, ip administered on day 1 and 4 measured on day 8 (reference value: 30 +/- 3.24 g); format: organism-based; set-up: dose 0.25 mg/kg, route intraperitoneal; settings: in vivo
H22 [6] = assay: Antitumor activity against mouse H22 cells allografted in KM mouse assessed as tumor growth inhibition at 0.25 mg/kg, ip administered on day 1 and 4 measured on day 8 relative to control; format: functional; settings: route intraperitoneal, read-out: TGI
H22 [7] = assay: Antitumor activity against mouse H22 cells allografted in KM mouse assessed as tumor growth inhibition at 0.5 mg/kg, ip administered on day 1 and 4 measured on day 8 relative to control; format: functional; settings: route intraperitoneal, read-out: TGI
Mus musculus [8] = assay: Toxicity in KM mouse allografted with mouse H22 cells assessed as body weight at 0.5 mg/kg, ip administered on day 1 and 4 measured on day 8 (reference value: 30 +/- 3.24 g); format: organism-based; set-up: dose 0.5 mg/kg, route intraperitoneal; settings: in vivo

COC(=O)n1cnc2c(OC)ccc(-c3ocnc3-c3cc(OC)c(OC)c(OC)c3)c21
IC50 (HepG2): 20 nM | IC50 (BXPC-3): 42 nM | IC50 (HT-29): 11 nM | IC50 (MX1 [1]): 565 nM | IC50 (KB [2]): 27 nM | IC50 (KB [3]): 70 nM | IC50 (MCF7): 17 nM | IC50 (A549): 3.8 nM | IC50 (MX1 [4]): 393 nM

COc1cc(-c2ncoc2-c2ccc(OC)c3c2ncn3CCO)cc(OC)c1OC
IC50 (HepG2): 250 nM | IC50 (HT-29): 170 nM | IC50 (MCF7): 510 nM

COc1cc(-c2ncoc2-c2ccc(OC)c3ncn(CCCO)c23)cc(OC)c1OC
IC50 (HepG2): 310 nM | IC50 (HT-29): 290 nM | IC50 (MX1 [1]): > 10000 nM | IC50 (KB [2]): 346 nM | IC50 (KB [3]): > 10000 nM | IC50 (MCF7): 500 nM | IC50 (MX1 [4]): 3780 nM

COc1cc(-c2ncoc2-c2ccc(OC)c3ncn(CCO)c23)cc(OC)c1OC
IC50 (HepG2): 130 nM | IC50 (HT-29): 180 nM | IC50 (MCF7): 540 nM

COC(=O)n1cnc2c(-c3ocnc3-c3cc(OC)c(OC)c(OC)c3)ccc(OC)c21
IC50 (HepG2): 25 nM | IC50 (BXPC-3): 45 nM | IC50 (HT-29): 11 nM | IC50 (MX1 [1]): 4860 nM | IC50 (KB [2]): 107 nM | IC50 (KB [3]): 53 nM | IC50 (MCF7): 47 nM | IC50 (A549): 3 nM | IC50 (MX1 [4]): 241 nM

COc1cc(-c2ncoc2-c2ccc(OC)c3c2ncn3C)cc(OC)c1OC
IC50 (HepG2): 29 nM | IC50 (BXPC-3): 56 nM | IC50 (HT-29): 14 nM | IC50 (MX1 [1]): 12800 nM | IC50 (KB [2]): 41 nM | IC50 (KB [3]): 27 nM | IC50 (MCF7): 39 nM | IC50 (A549): 9.6 nM | IC50 (MX1 [4]): 334 nM

COc1cc(-c2ncoc2-c2ccc(OC)c3ncn(CC(N)=O)c23)cc(OC)c1OC
IC50 (HepG2): 870 nM | IC50 (BXPC-3): 1390 nM | IC50 (HT-29): 1600 nM | IC50 (MCF7): 2050 nM | IC50 (A549): > 5000 nM

CC[C@]1(O)C[C@H]2CN(CCc3c([nH]c4ccccc34)[C@@](C(=O)OC)(c3cc4c(cc3OC)N(C=O)[C@H]3[C@@](O)(C(=O)OC)[C@H](OC(C)=O)[C@]5(CC)C=CCN6CC[C@]43[C@@H]65)C2)C1 [VINCRISTINE]
Activity (Mus musculus [5]): 24.6 g | IC50 (HepG2): 210 nM | IC50 (BXPC-3): > 500 nM | IC50 (HT-29): 12 nM | IC50 (MX1 [1]): 75 nM | IC50 (KB [2]): 139 nM | IC50 (KB [3]): > 100000 nM | inhibition in vivo at 0.25 mg/kg (H22 [6]): 31% | inhibition in vivo at 0.5 mg/kg (H22 [7]): 61% | IC50 (MCF7): 13 nM | Activity (Mus musculus [8]): 25.5 g | IC50 (A549): 53 nM | IC50 (MX1 [4]): 12 nM

COc1ccc(/C=C\c2cc(OC)c(OC)c(OC)c2)cc1O [COMBRETASTATIN A4]
IC50 (BXPC-3): < 50 nM | IC50 (MX1 [1]): 71 nM | IC50 (KB [2]): 8 nM | IC50 (KB [3]): 6 nM | IC50 (MCF7): 220 nM | IC50 (MX1 [4]): 52 nM

COc1cc(-c2ncoc2-c2ccc(OC)c3ncn(CC(=O)O)c23)cc(OC)c1OC
IC50 (HepG2): > 5000 nM | IC50 (BXPC-3): > 5000 nM | IC50 (HT-29): > 5000 nM | IC50 (MCF7): > 5000 nM | IC50 (A549): > 5000 nM
